Measurements published in patent publication US20240245770A1, “COMPOSITIONS AND METHODS FOR TREATING NEUROMUSCULAR DISORDERS” (The Regents of the University of California, priority 2019, published 2024).

System: serum cytokine/chemokine/growth factor/ligands of ALS patient
Assay: Serum Luminex, before and after NAC treatment
Type: in vivo, human
Description: (§1) Serum Luminex. Serum from patients were used to determine the levels of cytokine/chemokine/growth factor/ligands secretion using multiplex luminex assay. Scatter plot was prepared using the levels of cytokine/chemokine/growth factor/ligands in serum obtained at different dates from patients as compared to controls.
Serum Luminex. Serum from patients were used to determine the levels of cytokine/chemokine/growth factor/ligands secretion using multiplex luminex assay.
as §1

[1] = JC sera Apr. 30, 2020 (NAC infusion)
[2] = JC sera Jun. 22, 2020 (NAC infusion)
[3] = JC sera Jun. 24, 2020 (NAC infusion)
[4] = JC sera May 7, 2020 (NAC infusion)
[5] = JC sera May 14, 2020 (NAC infusion)
[6] = JC sera May 21, 2020 (NAC infusion)
[7] = JC sera May 28, 2020 (NAC infusion)
[8] = serum of ALS patient after NAC treatment

With `CC(=O)N[C@@H](CS)C(=O)O` [NAC, N-Acetyl-Cysteine] the IL-5 (JC sera Apr. 30, 2020) was 2 pg/mL, the IL-7 (JC sera Apr. 30, 2020) was 6.25 pg/mL and the IL-8 (JC sera Apr. 30, 2020) was 4.28 pg/mL. For the same compound, the IL-21 (JC sera Apr. 30, 2020) was 0.86 pg/mL, the IL-23 (JC sera Apr. 30, 2020) was 138.55 pg/mL and the MIP-1a (JC sera Apr. 30, 2020) was 11.35 pg/mL. For the same compound, the MIP-1b (JC sera Apr. 30, 2020) was 17.78 pg/mL, the TNFa (JC sera Apr. 30, 2020) was 8.46 pg/mL and the Franktalkine [1] was 35.49 pg/mL. For the same compound, the GM-CSF [1] was 59.71 pg/mL, the IFNg [1] was 9.14 pg/mL and the IL-1b [1] was 1.03 pg/mL. The IL-10 [1] was 5.71 pg/mL, the IL-12p70 [1] was 2.32 pg/mL and the ITAC [1] was 14.07 pg/mL. It also gave an MIP-3a [1] of 8.17 pg/mL, an IL-2 (JC sera Jun. 22, 2020) of 0.04 pg/mL and an IL-4 (JC sera Jun. 22, 2020) of 15.17 pg/mL. For the same compound, the IL-5 (JC sera Jun. 22, 2020) was 2.44 pg/mL, the IL-6 (JC sera Jun. 22, 2020) was 3.33 pg/mL and the IL-7 (JC sera Jun. 22, 2020) was 7.25 pg/mL. It also gave an IL-8 (JC sera Jun. 22, 2020) of 5.21 pg/mL, an IL-21 (JC sera Jun. 22, 2020) of 0.86 pg/mL and an IL-23 (JC sera Jun. 22, 2020) of 158.41 pg/mL. It also gave an MIP-1a (JC sera Jun. 22, 2020) of 12.15 pg/mL, an MIP-1b (JC sera Jun. 22, 2020) of 24.21 pg/mL and a TNFa (JC sera Jun. 22, 2020) of 9.2 pg/mL. The Franktalkine [2] was 35.49 pg/mL, the GM-CSF [2] was 50.3 pg/mL and the IFNg [2] was 10.42 pg/mL. The IL-1b [2] was 0.91 pg/mL, the IL-10 [2] was 8.54 pg/mL and the IL-12p70 [2] was 2.32 pg/mL. For the same compound, the IL-13 [2] was 5.03 pg/mL, the IL-17A [2] was 6.86 pg/mL and the ITAC [2] was 13.07 pg/mL. It also gave an MIP-3a [2] of 10.65 pg/mL, an IL-2 (JC sera Jun. 24, 2020) of 0.17 pg/mL and an IL-4 (JC sera Jun. 24, 2020) of 10.14 pg/mL. It also gave an IL-5 (JC sera Jun. 24, 2020) of 2.1 pg/mL, an IL-7 (JC sera Jun. 24, 2020) of 5.13 pg/mL and an IL-8 (JC sera Jun. 24, 2020) of 4.47 pg/mL. For the same compound, the IL-21 (JC sera Jun. 24, 2020) was 0.62 pg/mL, the IL-23 (JC sera Jun. 24, 2020) was 106.21 pg/mL and the MIP-1a (JC sera Jun. 24, 2020) was 12.15 pg/mL. It also gave an MIP-1b (JC sera Jun. 24, 2020) of 27.78 pg/mL, a TNFa (JC sera Jun. 24, 2020) of 8.82 pg/mL and a Franktalkine [3] of 35.11 pg/mL. The GM-CSF [3] was 111.4 pg/mL, the IFNg [3] was 4.58 pg/mL and the IL-1b [3] was 0.77 pg/mL. The IL-10 [3] was 23.69 pg/mL, the IL-12p70 [3] was 1.64 pg/mL and the IL-13 [3] was 3.95 pg/mL. For the same compound, the IL-17A [3] was 2.46 pg/mL, the ITAC [3] was 10.44 pg/mL and the MIP-3a [3] was 8.55 pg/mL. For the same compound, the IL-2 (JC sera May 7, 2020) was 0.21 pg/mL, the IL-4 (JC sera May 7, 2020) was 7.5 pg/mL and the IL-5 (JC sera May 7, 2020) was 1.77 pg/mL. It also gave an IL-6 (JC sera May 7, 2020) of 1.37 pg/mL, an IL-7 (JC sera May 7, 2020) of 4.06 pg/mL and an IL-8 (JC sera May 7, 2020) of 3.39 pg/mL. It also gave an IL-21 (JC sera May 7, 2020) of 0.62 pg/mL, an IL-23 (JC sera May 7, 2020) of 116.26 pg/mL and an MIP-1a (JC sera May 7, 2020) of 10.39 pg/mL. The MIP-1b (JC sera May 7, 2020) was 16.67 pg/mL, the TNFa (JC sera May 7, 2020) was 7.45 pg/mL and the Franktalkine [4] was 33.33 pg/mL. The GM-CSF [4] was 58.44 pg/mL, the IFNg [4] was 4.81 pg/mL and the IL-1b [4] was 0.72 pg/mL. It also gave an IL-10 [4] of 6.63 pg/mL, an IL-12p70 [4] of 1.6 pg/mL and an IL-13 [4] of 3.99 pg/mL. It also gave an IL-17A [4] of 2.78 pg/mL, an ITAC [4] of 13.07 pg/mL and an MIP-3a [4] of 7.8 pg/mL. For the same compound, the IL-2 (JC sera May 12, 2020) was 0 pg/mL, the IL-4 (JC sera May 12, 2020) was 10.14 pg/mL and the IL-6 (JC sera May 12, 2020) was 1.76 pg/mL. For the same compound, the IL-7 (JC sera May 12, 2020) was 5.13 pg/mL, the IL-8 (JC sera May 12, 2020) was 4.18 pg/mL and the IL-21 (JC sera May 12, 2020) was 0.62 pg/mL. For the same compound, the IL-23 (JC sera May 12, 2020) was 92.37 pg/mL, the MIP-1a (JC sera May 12, 2020) was 11.8 pg/mL and the MIP-1b (JC sera May 12, 2020) was 25.53 pg/mL. For the same compound, the TNFa (JC sera May 12, 2020) was 7.14 pg/mL, the IL-2 (JC sera May 14, 2020) was 8.16 pg/mL and the IL-4 (JC sera May 14, 2020) was 13.73 pg/mL. It also gave an IL-5 (JC sera May 14, 2020) of 1.72 pg/mL, an IL-6 (JC sera May 14, 2020) of 1.07 pg/mL and an IL-7 (JC sera May 14, 2020) of 6.39 pg/mL. For the same compound, the IL-8 (JC sera May 14, 2020) was 5.32 pg/mL, the IL-21 (JC sera May 14, 2020) was 0.56 pg/mL and the IL-23 (JC sera May 14, 2020) was 106.21 pg/mL. The MIP-1a (JC sera May 14, 2020) was 12.15 pg/mL, the MIP-1b (JC sera May 14, 2020) was 19.37 pg/mL and the TNFa (JC sera May 14, 2020) was 7.77 pg/mL. The Franktalkine [5] was 31.36 pg/mL, the GM-CSF [5] was 53.64 pg/mL and the IFNg [5] was 4.14 pg/mL. The IL-1b [5] was 0.8 pg/mL, the IL-10 [5] was 4.47 pg/mL and the IL-12p70 [5] was 1.81 pg/mL. The IL-13 [5] was 4.08 pg/mL, the IL-17A [5] was 2.24 pg/mL and the ITAC [5] was 12.13 pg/mL. It also gave an MIP-3a [5] of 6.78 pg/mL, a Franktalkine [6] of 32.65 pg/mL and a GM-CSF [6] of 48.19 pg/mL. It also gave an IFNg [6] of 5.58 pg/mL, an IL-1b [6] of 0.8 pg/mL and an IL-10 [6] of 3.7 pg/mL. For the same compound, the IL-12p70 [6] was 1.72 pg/mL, the IL-13 [6] was 3.99 pg/mL and the ITAC [6] was 15.13 pg/mL. The MIP-3a [6] was 6.78 pg/mL, the IL-2 (JC sera May 28, 2020) was 0.01 pg/mL and the IL-4 (JC sera May 28, 2020) was 11.8 pg/mL. It also gave an IL-5 (JC sera May 28, 2020) of 2.21 pg/mL, an IL-6 (JC sera May 28, 2020) of 2.03 pg/mL and an IL-7 (JC sera May 28, 2020) of 5.99 pg/mL. The IL-8 (JC sera May 28, 2020) was 4.47 pg/mL, the IL-21 (JC sera May 28, 2020) was 0.75 pg/mL and the IL-23 (JC sera May 28, 2020) was 144.83 pg/mL. It also gave an MIP-1a (JC sera May 28, 2020) of 11.46 pg/mL, an MIP-1b (JC sera May 28, 2020) of 25.53 pg/mL and a TNFa (JC sera May 28, 2020) of 8.64 pg/mL. For the same compound, the Franktalkine [7] was 37.04 pg/mL, the GM-CSF [7] was 75.6 pg/mL and the IFNg [7] was 8.94 pg/mL. It also gave an IL-1b [7] of 0.87 pg/mL, an IL-10 [7] of 6.63 pg/mL and an IL-12p70 [7] of 2.16 pg/mL. For the same compound, the IL-13 [7] was 4.44 pg/mL, the IL-17A [7] was 5.49 pg/mL and the ITAC [7] was 14.77 pg/mL. The MIP-3a [7] was 8.17 pg/mL, the “serum cytokines of ALS patient compared to healthy twin after NAC treatment” value (serum Luminex, Table 137) was “only IFN-g and TNF-α remained higher in ALS patient when compared to healthy twin” and the “change of serum cytokines after NAC treatment” value (serum from ALS patient, Table 138) was “Decrease in respective cytokines”. For the same compound, the Fractalkine [8] was 39.89, the GCSF [8] was 82.17 and the IFNa2 [8] was 22.87. For the same compound, the IFNg [8] was 21.25, the IL-6 [8] was 14.86 and the IL-12p40 [8] was 15.96. The IL-12p70 [8] was 9.801, the IL-17a [8] was 14.45 and the Rantes [8] was 9578. It also gave a TNFa (serum of ALS patient after NAC treatment, in pg/mL) of 29.18.
